Measured values reported in patent publication US20130209543A1, “ENHANCED TREATMENT REGIMENS USING MTOR INHIBITORS” (Intellikine LLC, priority 2011, published 2013).

Test: Phase I clinical trial: safety, related treatment-emergent adverse events, patients n (%)
Assay type: in vivo
Procedure: Safety, maximum tolerated dose (MTD), pharmacokinetics (PK) and preliminary antitumor activity were evaluated.
Pharmacodynamic (PD) endpoints were evaluated in surrogate (peripheral blood cells [PBCs], skin) and tumor tissues for the phosphorylation of TORC1-dependent markers (4EBP1/S6), and TORC2-dependent markers (AKT/PRAS40).

CC(C)n1nc(-c2ccc3oc(N)nc3c2)c2c(N)ncnc21 [compound A]
3 (60%): Rash (9 mg/3W, N = 5)
0 (0%): Asthenia (6 mg/3W, N = 3) | Asthenia (second line) (6 mg/3W, N = 3) | Catheter site inflammation (6 mg/3W, N = 3) | Catheter site pain (6 mg/3W, N = 3) | Decreased appetite (6 mg/3W, N = 3) | Diarrhoea (6 mg/3W, N = 3) | Dry skin (6 mg/3W, N = 3) | Dysgeusia (6 mg/3W, N = 3) | Dyspnoea (6 mg/3W, N = 3) | Fatigue (6 mg/3W, N = 3) | Headache (6 mg/3W, N = 3) | Hypercholesterolaemia (6 mg/3W, N = 3) | Hypertransaminasaemia (6 mg/3W, N = 3) | Hypertriglyceridaemia (6 mg/3W, N = 3) | Hypomagnesaemia (6 mg/3W, N = 3) | Hypotension (6 mg/3W, N = 3) | Low fever (6 mg/3W, N = 3) | Lymphopenia (6 mg/3W, N = 3) | Palmar-plantar erythrodysaesthesia syndrome (6 mg/3W, N = 3) | Pyrexia (6 mg/3W, N = 3) | Rash macular (6 mg/3W, N = 3) | Urinary tract infection (6 mg/3W, N = 3) | Nausea (7 mg/5W, N = 3) | Urine tract infection (7 mg/5W, N = 3) | Vomiting (7 mg/5W, N = 3) | Alanine aminotransferase increased (9 mg/3W, N = 5) | Asthenia (second line) (9 mg/3W, N = 5) | Catheter site inflammation (9 mg/3W, N = 5) | Catheter site pain (9 mg/3W, N = 5) | Decreased appetite (9 mg/3W, N = 5) | Dysgeusia (9 mg/3W, N = 5) | Fatigue (9 mg/3W, N = 5) | Headache (9 mg/3W, N = 5) | Hyperbilirubinaemia (9 mg/3W, N = 5) | Low fever (9 mg/3W, N = 5) | Platelet count decreased (9 mg/3W, N = 5) | Pyrexia (9 mg/3W, N = 5) | Rash macular (9 mg/3W, N = 5) | Diarrhoea (10 mg/5W, N = 3) | Nausea (second line) (10 mg/5W, N = 3) | Rash (10 mg/5W, N = 3) | Mucosal inflammation (10 mg/week, N = 3) | Alanine aminotransferase increased (12 mg/3W, N = 3) | Asthenia (second line) (12 mg/3W, N = 3) | Diarrhoea (12 mg/3W, N = 3) | Dry skin (12 mg/3W, N = 3) | Dyspnoea (12 mg/3W, N = 3) | Fatigue (12 mg/3W, N = 3) | Headache (12 mg/3W, N = 3) | Hyperbilirubinaemia (12 mg/3W, N = 3) | Hypercholesterolaemia (12 mg/3W, N = 3) | Hypertransaminasaemia (12 mg/3W, N = 3) | Hypertriglyceridaemia (12 mg/3W, N = 3) | Hypomagnesaemia (12 mg/3W, N = 3) | Hypotension (12 mg/3W, N = 3) | Low fever (12 mg/3W, N = 3) | Lymphopenia (12 mg/3W, N = 3) | Palmar-plantar erythrodysaesthesia syndrome (12 mg/3W, N = 3) | Platelet count decreased (12 mg/3W, N = 3) | Pyrexia (12 mg/3W, N = 3) | Rash (12 mg/3W, N = 3) | Urinary tract infection (12 mg/3W, N = 3) | Vomiting (12 mg/3W, N = 3) | Alanine aminotransferase increased (16 mg/3W, N = 3) | Catheter site inflammation (16 mg/3W, N = 3) | Catheter site pain (16 mg/3W, N = 3) | Decreased appetite (16 mg/3W, N = 3) | Dry skin (16 mg/3W, N = 3) | Dysgeusia (16 mg/3W, N = 3) | Dyspnoea (16 mg/3W, N = 3) | Hyperbilirubinaemia (16 mg/3W, N = 3) | Hypercholesterolaemia (16 mg/3W, N = 3) | Hypertransaminasaemia (16 mg/3W, N = 3) | Hypertriglyceridaemia (16 mg/3W, N = 3) | Hypomagnesaemia (16 mg/3W, N = 3) | Hypotension (16 mg/3W, N = 3) | Lymphopenia (16 mg/3W, N = 3) | Nausea (16 mg/3W, N = 3) | Palmar-plantar erythrodysaesthesia syndrome (16 mg/3W, N = 3) | Platelet count decreased (16 mg/3W, N = 3) | Pruritus (16 mg/3W, N = 3) | Rash (16 mg/3W, N = 3) | Rash macular (16 mg/3W, N = 3) | Urinary tract infection (16 mg/3W, N = 3) | Vomiting (16 mg/3W, N = 3) | Catheter site inflammation (Total QD Dosing, N = 25) | Catheter site pain (Total QD Dosing, N = 25) | Diarrhea (Total QD Dosing, N = 25) | Fatigue (Total QD Dosing, N = 25) | Headache (Total QD Dosing, N = 25) | Hyperbilirubinaemia (Total QD Dosing, N = 25) | Hypertransaminasaemia (Total QD Dosing, N = 25) | Hypertriglyceridaemia (Total QD Dosing, N = 25) | Hypomagnesaemia (Total QD Dosing, N = 25) | Hypotension (Total QD Dosing, N = 25) | Low fever (Total QD Dosing, N = 25) | Malaise (Total QD Dosing, N = 25) | Nausea (Total QD Dosing, N = 25) | Oral discomfort (Total QD Dosing, N = 25) | Palmar-plantar erythrodysaesthesia syndrome (Total QD Dosing, N = 25) | Platelet count decreased (Total QD Dosing, N = 25) | Pyrexia (Total QD Dosing, N = 25) | Rash (Total QD Dosing, N = 25) | Rash macular (Total QD Dosing, N = 25) | Urinary tract infection (Total QD Dosing, N = 25) | Urine tract infection (Total QD Dosing, N = 25) | Vomiting (Total QD Dosing, N = 25) | Weakness (Total QD Dosing, N = 25) | Coagulopathy (Total QDx3d QW, N = 14) | Confusional state (Total QDx3d QW, N = 14) | Cough (Total QDx3d QW, N = 14) | Diarrhea (Total QDx3d QW, N = 14) | Dizziness (Total QDx3d QW, N = 14) | Dyspnoea exertional (Total QDx3d QW, N = 14) | Eye infection (Total QDx3d QW, N = 14)
3 (100%): Patients Reporting at Least One Related TEAE (6 mg/3W, N = 3) | Patients Reporting at Least One Related TEAE (7 mg/week, N = 3) | Patients Reporting at Least One Related TEAE (15 mg/week, N = 3) | Nausea (30 mg/week, N = 3) | Patients Reporting at Least One Related TEAE (30 mg/week, N = 3)
1 (20%): Asthenia (9 mg/3W, N = 5) | Diarrhoea (9 mg/3W, N = 5) | Dry skin (9 mg/3W, N = 5) | Dyspnoea (9 mg/3W, N = 5) | Hypercholesterolaemia (9 mg/3W, N = 5) | Hyperglycaemia (9 mg/3W, N = 5) | Hypertransaminasaemia (9 mg/3W, N = 5) | Hypertriglyceridaemia (9 mg/3W, N = 5) | Hypomagnesaemia (9 mg/3W, N = 5) | Hypotension (9 mg/3W, N = 5) | Lymphopenia (9 mg/3W, N = 5) | Palmar-plantar erythrodysaesthesia syndrome (9 mg/3W, N = 5) | Urinary tract infection (9 mg/3W, N = 5)
Asthenia: Dose limiting toxicity (40 mg QW)
4 (80%): Patients Reporting at Least One Related TEAE (9 mg/3W, N = 5)
Mucositis: Dose limiting toxicity (20 mg Q3D)
1 (7%): Asthenia (second line) (Total QDx3d QW, N = 14)
2 (40%): Mucosal inflammation (9 mg/3W, N = 5) | Nausea (9 mg/3W, N = 5) | Pruritus (9 mg/3W, N = 5) | Vomiting (9 mg/3W, N = 5)
1 (33%): Nausea (second line) (7 mg/5W, N = 3) | Asthenia (second line) (16 mg/3W, N = 3)
Grade (G) 3 asthenia and G3 mucositis: Dose limiting toxicities (40 mg QW, 20 mg QD×3d QW and 13 mg QD×5d QW cohorts)
